# pIC50: −log10 of the molar value. Where two headings read alike, the source gives them in different places.
# What was measured:
# human NaV1.6 (hNaV1.6) = human NaV1.6 (hNaV1.6) (Homo sapiens (Human), UniProt Q9UQD0); test: INaL inhibition at hNaV1.6, PatchXpress electrophysiology; assay type: cell-based
# Method: Functional characterization of exemplary compounds to modulate INaL expressed by the Nay 1.6 voltage-gated sodium channel was accomplished using the PatchXpress™ high throughput electrophysiology platform (Molecular Devices, Sunnyvale, Calif.). HEK-293 cells expressing recombinant, human NaV1.6 (hNaV1.6) were grown in DMEM/high-glucose Dulbecco's modified, 10% FBS, 2 mM sodium pyruvate, 10 mM HEPES and 400 μg/mL G418. Cells were grown to 50%-80% confluency prior to harvesting. […] The onboard liquid handling facility of the PatchXpress was used for dispensing cells and applying test compounds. Nay late currents were evoked by the application of 300 nM ATX-II. […] INaL amplitude and stability were determined by analyzing the mean current amplitude over the final 20 ms of the test pulse. […] Percent steady-state inhibition of INaL was calculated as: [(INaL_compound)/(INaL_control)]*100, where INaL_compound and INaL_control represent INaL recorded in the presence or absence of compound, respectively.
# CYP1A2 = CYP1A2 (Homo sapiens (Human), UniProt P05177); test: CYP1A2 inhibition in human liver microsomes; assay type: in vitro ADME; conditions: pooled human liver microsomes, marker substrate Phenacetin
# Method: The specific marker metabolites are measured with LC/MS/MS. The remaining enzymatic activities and inhibitory potency IC50 are determined. Microsomes are removed out of the −80° C. freezer to thaw on ice and 20 μL of the substrates solution added to the corresponding wells. […] Then 158 μL of the HLM working solution was added to all wells of the incubation plate. The plate was pre-warmed for about 10 min using a 37° C. water bath. Then 20 μL of the NADPH cofactor solution was added to all incubation wells, mixed and incubated for 10 minutes at 37° C. water bath. The reaction is terminated by adding 400 μL cold stop solution (200 ng/mL Tolbutamide and 200 ng/mL Labetalol in ACN). […] Finally 200 μL of the supernatant was transferred to 100 μL HPLC water, shaken for 10 min and analyzed by LC/MS/MS. […] Equation for three parameters logistic sigmoidal curve: […]
# [1] = PK rat clearance experiment; assay type: in vivo; conditions: male Sprague-Dawley rats, single intravenous bolus 0.5 mg/kg, plasma
# Method: The IV dosing solution was prepared freshly on the dosing day. Test article (0.5 mg/kg) was prepared in a vehicle, for example, consisting of 5% DMSO/5% solutol/90% water. The concentrations of test article in all dosing solutions were determined by HPLC/UV. Three male Sprague-Dawley rats were used in this study. The animals were confirmed healthy before being assigned to the study. Each animal was given a unique identification number which was marked on the tail or the ear, and written on the cage card. All animals were fasted overnight before dosing and the food was returned at 4 hours post dosing. Water was provided to all animals ad libitum during the fasting period. Animals were weighed prior to dose administration on the day of dosing for calculating the actual dose volume. The body weights were in the range from 212 g to 223 g for males. All animals received test article by single intravenous bolus administration at 0.5 mg/kg. Approximately 0.2 mL blood was collected at each time point via jugular vein from each study animal. […] All blood samples were transferred into pre-labeled plastic micro centrifuge tubes and mixed with the pre-loaded anti-coagulant K2EDTA (5 μL, 0.5 M). Plasma samples were then prepared by centrifuging the blood samples. All plasma samples were then quickly frozen over dry ice and kept at −60° C. or lower until LC/MS/MS analysis. The concentrations of test article in plasma were determined by using a quantitative bioanalytical LC/MS/MS method. The lower limit of quantitation (LLOQ) for test article in plasma was 1 ng/mL, and the upper limit of quantitation (ULOQ) in plasma was 3000 ng/mL. The plasma concentration of test article in rats was subjected to a non compartmental pharmacokinetic analysis by using the Phoenix WinNonlin software (version 6.3, Pharsight, Mountain View, Calif.). The linear/log trapezoidal rule was applied in obtaining the PK parameters.
# [2] = HEK293, 1 μM, HEK-293 cells expressing hNaV1.6, late current evoked by 300 nM ATX-II, read-out: INaL v1.6 (1 μM, % Inhibition)
# [3] = HEK293, read-out: INaL v1.6 (1 μM, % Inhibition)
# Chain of CYP1A2 (P05177 whole entry): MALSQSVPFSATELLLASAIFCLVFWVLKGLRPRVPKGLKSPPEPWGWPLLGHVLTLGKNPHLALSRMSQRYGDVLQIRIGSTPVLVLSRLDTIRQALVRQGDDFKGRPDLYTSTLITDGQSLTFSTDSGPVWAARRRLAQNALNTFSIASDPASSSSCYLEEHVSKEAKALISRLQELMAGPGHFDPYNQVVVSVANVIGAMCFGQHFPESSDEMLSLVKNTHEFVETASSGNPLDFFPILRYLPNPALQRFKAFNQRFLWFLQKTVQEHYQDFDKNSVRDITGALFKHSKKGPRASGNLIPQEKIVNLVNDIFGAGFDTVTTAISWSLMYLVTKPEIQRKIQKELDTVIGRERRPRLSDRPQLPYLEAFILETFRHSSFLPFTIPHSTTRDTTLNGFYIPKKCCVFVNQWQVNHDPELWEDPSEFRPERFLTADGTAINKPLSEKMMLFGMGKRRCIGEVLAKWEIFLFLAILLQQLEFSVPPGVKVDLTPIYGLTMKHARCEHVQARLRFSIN
# Chain of human NaV1.6 (hNaV1.6) (Q9UQD0 whole entry): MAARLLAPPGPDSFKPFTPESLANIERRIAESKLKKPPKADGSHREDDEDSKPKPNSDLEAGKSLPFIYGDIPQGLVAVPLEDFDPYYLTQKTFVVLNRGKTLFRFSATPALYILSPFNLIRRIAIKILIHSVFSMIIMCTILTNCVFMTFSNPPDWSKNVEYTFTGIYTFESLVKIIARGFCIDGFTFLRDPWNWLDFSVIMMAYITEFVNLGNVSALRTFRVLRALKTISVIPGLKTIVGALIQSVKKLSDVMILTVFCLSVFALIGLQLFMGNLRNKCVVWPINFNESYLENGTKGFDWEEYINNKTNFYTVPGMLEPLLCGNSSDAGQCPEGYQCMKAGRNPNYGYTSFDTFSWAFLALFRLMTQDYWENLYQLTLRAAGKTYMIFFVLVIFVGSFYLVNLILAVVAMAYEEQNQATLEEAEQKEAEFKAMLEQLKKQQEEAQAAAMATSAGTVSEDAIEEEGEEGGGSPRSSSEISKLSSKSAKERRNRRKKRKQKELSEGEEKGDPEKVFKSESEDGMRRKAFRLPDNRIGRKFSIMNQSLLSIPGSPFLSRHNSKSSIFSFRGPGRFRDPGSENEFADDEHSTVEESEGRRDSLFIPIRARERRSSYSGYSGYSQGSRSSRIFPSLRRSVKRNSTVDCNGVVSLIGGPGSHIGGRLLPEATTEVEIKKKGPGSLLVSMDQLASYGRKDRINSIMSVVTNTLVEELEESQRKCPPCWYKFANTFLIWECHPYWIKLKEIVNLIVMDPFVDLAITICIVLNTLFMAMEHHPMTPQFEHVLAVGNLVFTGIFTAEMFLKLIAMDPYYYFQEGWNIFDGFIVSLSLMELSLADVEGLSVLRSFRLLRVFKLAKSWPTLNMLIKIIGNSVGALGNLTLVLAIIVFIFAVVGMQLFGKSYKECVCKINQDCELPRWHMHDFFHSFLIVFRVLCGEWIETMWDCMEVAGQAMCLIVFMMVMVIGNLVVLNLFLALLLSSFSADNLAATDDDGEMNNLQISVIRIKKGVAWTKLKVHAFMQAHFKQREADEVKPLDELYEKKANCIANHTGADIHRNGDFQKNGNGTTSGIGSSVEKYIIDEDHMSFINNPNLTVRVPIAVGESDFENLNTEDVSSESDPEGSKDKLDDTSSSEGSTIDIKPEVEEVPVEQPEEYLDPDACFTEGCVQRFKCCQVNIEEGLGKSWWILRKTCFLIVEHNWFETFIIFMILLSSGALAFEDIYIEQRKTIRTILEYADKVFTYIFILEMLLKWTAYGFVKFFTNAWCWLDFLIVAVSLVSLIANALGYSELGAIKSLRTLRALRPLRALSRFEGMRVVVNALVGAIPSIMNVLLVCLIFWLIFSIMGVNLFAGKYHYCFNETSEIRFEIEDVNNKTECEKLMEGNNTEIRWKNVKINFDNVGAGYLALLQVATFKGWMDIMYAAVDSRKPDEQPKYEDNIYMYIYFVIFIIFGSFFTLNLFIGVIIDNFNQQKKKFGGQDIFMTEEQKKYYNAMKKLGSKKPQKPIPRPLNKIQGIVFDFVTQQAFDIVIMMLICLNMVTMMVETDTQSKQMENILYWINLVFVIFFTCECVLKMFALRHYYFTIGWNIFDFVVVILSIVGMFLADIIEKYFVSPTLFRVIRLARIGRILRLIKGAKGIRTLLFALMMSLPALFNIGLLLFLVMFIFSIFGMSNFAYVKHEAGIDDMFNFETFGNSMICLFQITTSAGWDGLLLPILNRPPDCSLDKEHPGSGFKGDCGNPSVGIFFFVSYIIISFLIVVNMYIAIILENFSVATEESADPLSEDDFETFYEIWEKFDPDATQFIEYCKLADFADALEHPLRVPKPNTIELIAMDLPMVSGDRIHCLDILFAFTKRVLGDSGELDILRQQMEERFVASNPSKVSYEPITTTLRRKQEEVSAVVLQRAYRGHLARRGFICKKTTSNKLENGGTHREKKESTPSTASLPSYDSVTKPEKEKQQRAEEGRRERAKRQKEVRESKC
inhibition at 1 µM (human NaV1.6 (hNaV1.6); [2]) [%],pIC50 (CYP1A2),clearance [1] [mL/min/kg],half-life [1] [h],Structure (SMILES),inhibition at 1 µM (human NaV1.6 (hNaV1.6); [3]) [%]
> 70,< 4.52,,,"C[C@H](Oc1ncc(-c2ccc3nnc(C(F)(F)F)n3n2)cc1F)C(F)(F)F (single isomer, unassigned) [Compound 127]",
> 70,> 6.00,,,COC(F)(F)c1nnc2ccc(-c3ccc(OC(F)(F)F)cc3)nn12 [Compound 41],
> 70,4.52 to 4.82,8.8,10.2,Cc1cc(OC(F)(F)F)ccc1-c1cn2c(C(F)(F)F)nnc2cn1 [Compound 63],
30 to 70,< 4.52,,,"FC(F)(F)Oc1ccc(-c2ccc3nnc(C[C@@H]4CCCCO4)n3n2)cc1 (single isomer, unassigned) [Compound 43]",
> 70,4.52 to 4.82,7.6,8.1,Cc1cc(OC(F)(F)F)ccc1-c1cn2c(C(F)F)nnc2cn1 [Compound 49],
> 70,4.52 to 4.82,,,COCc1cc(-c2ccc3nnc(C(F)(F)F)n3n2)ccc1OC(F)(F)F [Compound 117],
> 70,4.82 to 6.00,,,CC(C)Oc1ccc(-c2cn3c(C(F)(F)F)nnc3cn2)cc1 [Compound 77],
,4.82 to 6.00,,,FC(F)(F)Oc1ccc(-c2ccc3nnc(C(F)(F)F)n3n2)cc1 [Compound 108],
> 70,< 4.52,,,COC(F)(F)c1nnc2ccc(-c3cnc(OCC(F)(F)F)c(F)c3)nn12 [Compound 96],
> 70,< 4.52,31,0.55,FC1(F)CC(Oc2ccc(-c3ccc4nnc(C(F)(F)F)n4n3)cn2)C1 [Compound 65],
> 70,< 4.52,13.9,1.9,Fc1cc(-c2ccc3nnc(C(F)(F)F)n3n2)cnc1OCC(F)(F)F [Compound 107],
> 70,< 4.52,,,"C[C@H](Oc1ncc(-c2cn3c(C(F)(F)F)nnc3cn2)cc1F)C(F)(F)F (single isomer, unassigned) [Compound 125]",
> 70,< 4.52,15.9,6.5,"C[C@@H](Oc1ncc(-c2cn3c(C(F)(F)F)nnc3cn2)cc1F)C(F)(F)F (single isomer, unassigned) [Compound 124]",
30 to 70,< 4.52,,,Fc1cc(-c2cn3c(C(F)(F)F)nnc3cn2)cnc1OCC(F)(F)F [Compound 78],
< 30,4.82 to 6.00,,,Fc1cc(OC(F)(F)F)ccc1-c1cn2c(C(F)(F)F)nnc2cn1 [Compound 72],
30 to 70,4.82 to 6.00,,,FC(F)(F)Oc1ccc(-c2cn3c(C4(F)CC4)nnc3cn2)cc1 [Compound 112],
30 to 70,4.82 to 6.00,,,Cc1cc(C(F)(F)F)ccc1-c1cn2c(C(F)(F)F)nnc2cn1 [Compound 73],
30 to 70,< 4.52,,,"FC(F)(F)Oc1ccc(-c2ccc3nnc(C[C@H]4CCCCO4)n3n2)cc1 (single isomer, unassigned) [Compound 42]",
> 70,4.82 to 6.00,,,Cc1cc(OC(F)(F)F)ccc1-c1ccc2nnc(C(F)F)n2n1 [Compound 136],
30 to 70,4.82 to 6.00,,,Fc1cc(OC(F)(F)F)ccc1-c1cn2c(C(F)F)nnc2cn1 [Compound 52],
> 70,< 4.52,,,"C[C@@H](Oc1ncc(-c2ccc3nnc(C(F)(F)F)n3n2)cc1F)C(F)(F)F (single isomer, unassigned) [Compound 126]",
> 70,4.82 to 6.00,,,COCc1cc(C(F)(F)F)ccc1-c1cn2c(C(F)(F)F)nnc2cn1 [Compound 113],

Structure (SMILES),inhibition at 1 µM (human NaV1.6 (hNaV1.6); [2]) [%],pIC50 (CYP1A2),clearance [1] [mL/min/kg],half-life [1] [h],inhibition at 1 µM (human NaV1.6 (hNaV1.6); [3]) [%]
"FC(F)(F)c1nnc2ccc(-c3ccc([C@@H]4CC4(F)F)cc3)nn12 (single isomer, unassigned) [Compound 122]",,> 6.00,,,> 70
Cc1cc(C2(C#N)CC2)ccc1-c1ccc2nnc(C(F)(F)F)n2n1 [Compound 105],,4.52 to 4.82,,,30 to 70

# — patent publication US11629146B2, “Substituted [1,2,4]triazolo[4,3-a]pyrazines as modulators of sodium channel activity” (Praxis Precision Medicines, Inc., priority 2016, dated 2023)
